These results are taken from article PMC12169615, “Fluorescent 4‑Nitrobenzo-2-oxa-1,3-diazole-Coupled Bile Acids as Probe Substrates of Hepatic and Intestinal Bile Acid Transporters of the Solute Carrier Families SLC10 and SLCO” (Journal of Medicinal Chemistry, 2025).

“And” between values parts separate entries of the source, which are not always exact repeats. Equal values may be shown once.

The test system of assay [1] is HEK293 cells. Briefly: Fluorescence microscopy screening: accumulation independent from control conditions. Format: cell-based, human. The note with it: 50 μM, 10 min, all HEK293 cell lines, with and without sodium. The procedure: (§1) Then, all cell lines were cultivated in chamber slides and were grown to confluence to screen for carrier-mediated cellular accumulation of the synthesized NBD-BA. Incubation with the NBD-BA was done in the presence of sodium (+Na^+) as well as in the absence of sodium (-Na^+, negative control) for all SLC10 carriers, namely NTCP, ASBT, mNtcp, mAsbt, and SOAT. For OATP1B1 and OATP1B3, nontransfected HEK293 cells were used as negative control.
(§2) 4 Screening of the cellular uptake of 3-NBD-BA in HEK293 (HEK) cells stably expressing the human carriers NTCP, ASBT, SOAT, OATP1B1, and OATP1B3, or the mouse carriers mNtcp and mAsbt. For the SLC10 carriers, sodium-free conditions (-Na^+) were used as control. For the OATPs, experiments in non-carrier-expressing HEK293 cells (HEK) served as control. All cell lines were incubated for 10 min with the indicated 3-NBD-BA at 50 μM concentration. Then, cells were washed with PBS and subjected to fluorescence microscopy. Identical microscope settings were used for all images. Scale bar: 75 μm.

The target of assay [2] is T1, human NTCP (Homo sapiens, UniProt Q14973).
T1 construct: HEK293 cell lines stably transfected with the full open reading frames of human NTCP; expressed in transfected cells
T1 sequence (Q14973 1-349): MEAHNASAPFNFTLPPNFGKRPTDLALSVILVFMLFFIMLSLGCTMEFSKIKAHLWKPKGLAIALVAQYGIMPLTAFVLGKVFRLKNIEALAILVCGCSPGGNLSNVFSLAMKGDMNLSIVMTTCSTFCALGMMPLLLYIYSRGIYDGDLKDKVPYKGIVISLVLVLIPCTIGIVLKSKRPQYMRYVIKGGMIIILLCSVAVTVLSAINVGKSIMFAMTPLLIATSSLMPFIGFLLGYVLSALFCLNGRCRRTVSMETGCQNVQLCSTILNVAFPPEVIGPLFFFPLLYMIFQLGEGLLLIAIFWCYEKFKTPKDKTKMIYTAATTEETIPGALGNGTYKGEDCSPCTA
Briefly: Transport kinetics of conjugated 3-NBD-BA (concentration-dependent uptake). The class given is cell-based. As to conditions: NTCP-HEK293, 10 min uptake, 37 °C, specific (Na+-dependent) uptake. As to the method: (§3) In a first step, the time-dependent transport of all conjugated NBD-BA was analyzed. […] Based on these findings, an uptake phase of 10 min was selected as the most practical for subsequent kinetic transport measurements. […] In contrast, for ASBT, reliable carrier-specific concentration-dependent transport rates and K m values could only be determined for 3α-NBD-GCA (16d). The transport rates for 3β-NBD-TCA (14a), 3β-NBD-TCDCA (14b), 3β-NBD-GCA (16a), and 3α-NBD-TCA (14d) were at ≤ 2 across the entire concentration range and were therefore not considered biologically meaningful.
(§4) 6 NTCP and mNtcp transport kinetics for conjugated 3-NBD-BA. Concentration-dependent uptake of the indicated NBD-coupled BA was analyzed in HEK293 cells stably expressing human NTCP or mouse mNtcp at increasing substrate concentrations. Control experiments were performed in the absence of sodium (-Na^+). Uptake was analyzed for 10 min at 37 °C with transport buffer containing the indicated 3-NBD-BA. Afterward, the transport medium was removed, and each cell monolayer was washed and processed for fluorescence detection. Specific uptake was calculated by subtracting the nonspecific uptake in the absence of sodium (-Na^+, open symbols) from the uptake in the presence of sodium (+Na^+, closed symbols) and is shown by dotted lines. Values represent means ± SD of quadruplicate determinations. Michaelis Menten K m values were calculated by nonlinear regression analysis based on the specific uptake data.

Assay [3] addresses T2, mouse mAsbt (Mus musculus, UniProt P70172).
T2 sequence (P70172 1-348): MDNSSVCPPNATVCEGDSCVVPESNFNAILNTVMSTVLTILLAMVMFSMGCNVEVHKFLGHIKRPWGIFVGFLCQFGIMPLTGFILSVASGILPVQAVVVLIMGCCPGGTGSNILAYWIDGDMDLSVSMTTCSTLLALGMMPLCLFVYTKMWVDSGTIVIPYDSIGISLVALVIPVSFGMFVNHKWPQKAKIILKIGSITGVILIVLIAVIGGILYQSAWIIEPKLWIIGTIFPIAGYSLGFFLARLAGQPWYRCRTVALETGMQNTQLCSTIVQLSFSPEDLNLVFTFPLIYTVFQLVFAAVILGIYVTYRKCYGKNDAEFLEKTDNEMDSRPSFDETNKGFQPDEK
Briefly: Fluorescence microscopy screening of cellular uptake of 3-NBD-BA. The class given is cell-based. Further details: stably transfected with the full open reading frames of human NTCP, ASBT, SOAT, OATP1B1, and OATP1B3 as well as mouse mNtcp and mAsbt; expressed in transfected cells. The note with it: 50 μM, 10 min, +Na+ vs -Na+. The procedure:
as §1, §2

Assay [4] deals with T2, mouse mAsbt. The experiment in a line: Transport kinetics of conjugated 3-NBD-BA (concentration-dependent uptake). Format: cell-based. Also on record: stably transfected with the full open reading frames of human NTCP, ASBT, SOAT, OATP1B1, and OATP1B3 as well as mouse mNtcp and mAsbt; expressed in transfected cells. As to conditions: mAsbt-HEK293, 10 min uptake, 37 °C, specific (Na+-dependent) uptake. As to the method:
as §3
as §4, with “7 ASBT” for “6 NTCP”, “mAsbt” for “mNtcp”, “ASBT” for “NTCP”, “data. For ASBT, reliable specific uptake data could only be determined for 3α-NBD-GCA (16d).” for “data.”

As to “7α-Hydroxy-3β-[(7-nitro-2,1,3-benzoxadiazol-4-yl)amino]-5β-cholan-24-oate [6b]”, the “Cellular NBD-fluorescence irrespective of carrier/control conditions (microscopy)” value in assay [1] is “significant increase in cellular NBD-fluorescence, independent from the control conditions”.

As for “12α-Hydroxy-3β-[(7-nitro-2,1,3-benzoxadiazol-4-yl)amino]-5β-cholan-24-oate [6c]”, the “Cellular NBD-fluorescence irrespective of carrier/control conditions (microscopy)” value in assay [1] is reported as “significant increase in cellular NBD-fluorescence, independent from the control conditions”.

Turning to `C[C@H](CCC(=O)O)[C@H]1CC[C@H]2[C@@H]3[C@H](O)C[C@@H]4C[C@@H](Nc5ccc([N+](=O)[O-])c6nonc56)CC[C@]4(C)[C@H]3C[C@H](O)[C@]12C` [6a, 7α,12α-Dihydroxy-3β-[(7-nitro-2,1,3-benzoxadiazol-4-yl)amino]-5β-cholan-24-oate], in assay [1], the “Cellular NBD-fluorescence irrespective of carrier/control conditions (microscopy)” value is listed as “significant increase in cellular NBD-fluorescence, independent from the control conditions”.

`C[C@H](CCC(=O)O)[C@H]1CC[C@H]2[C@@H]3[C@H](O)C[C@@H]4C[C@H](Nc5ccc([N+](=O)[O-])c6nonc56)CC[C@]4(C)[C@H]3C[C@H](O)[C@]12C` [6d, 7α,12α-Dihydroxy-3α-[(7-nitro-2,1,3-benzoxadiazol-4-yl)amino]-5β-cholan-24-oate]: the “Cellular NBD-fluorescence irrespective of carrier/control conditions (microscopy)” value in assay [1] is “significant increase in cellular NBD-fluorescence, independent from the control conditions”.

Turning to `C[C@H](CCC(=O)NCCS(=O)(=O)[O-])[C@H]1CC[C@H]2[C@@H]3[C@H](O)C[C@@H]4C[C@@H](Nc5ccc([N+](=O)[O-])c6nonc56)CC[C@]4(C)[C@H]3C[C@H](O)[C@]12C.[Na+]` [14a], in assay [2], the “K m NTCP” value came to 29.5 µM. Also, the “Cellular NBD-fluorescence, mAsbt-HEK293 (microscopy)” value in assay [3] is “significant increase in cellular NBD-fluorescence compared to the negative control”. Besides, in assay [4], the “K m mAsbt” value is 20.0 µM and 20 µM.

Regarding `C[C@H](CCC(=O)NCCS(=O)(=O)[O-])[C@H]1CC[C@H]2[C@@H]3[C@H](O)C[C@@H]4C[C@H](Nc5ccc([N+](=O)[O-])c6nonc56)CC[C@]4(C)[C@H]3C[C@H](O)[C@]12C.[Na+]` [14d], in assay [2], the “K m NTCP” value was 20.0 µM and 20 µM. For the same compound, the “Cellular NBD-fluorescence, mAsbt-HEK293 (microscopy)” value in assay [3] is on record as “significant increase in cellular NBD-fluorescence compared to the negative control”. Moreover, the “K m mAsbt” value in assay [4] turned out to be 11.1 µM.

In the case of `C[C@H](CCC(=O)NCC(=O)O)[C@H]1CC[C@H]2[C@@H]3[C@H](O)C[C@@H]4C[C@@H](Nc5ccc([N+](=O)[O-])c6nonc56)CC[C@]4(C)[C@H]3C[C@H](O)[C@]12C` [16a], the “K m NTCP” value in assay [2] amounted to 43.1 µM. The “Cellular NBD-fluorescence, mAsbt-HEK293 (microscopy)” value in assay [3] is “significant increase in cellular NBD-fluorescence compared to the negative control”. Also, in assay [4], the “K m mAsbt” value is 3.5 µM.

As for `C[C@H](CCC(=O)NCC(=O)O)[C@H]1CC[C@H]2[C@@H]3[C@H](O)C[C@@H]4C[C@H](Nc5ccc([N+](=O)[O-])c6nonc56)CC[C@]4(C)[C@H]3C[C@H](O)[C@]12C` [16d], the “K m NTCP” value in assay [2] is 36.8 µM. In assay [3], the “Cellular NBD-fluorescence, mAsbt-HEK293 (microscopy)” value is “significant increase in cellular NBD-fluorescence compared to the negative control”. The “K m mAsbt” value in assay [4] came out at 14.5 µM.
